From PubChem BioAssay AID200 (DTP/NCI, 2004) come the findings set out here.

This assay relates to B6C3F1 mice, B16 melanoma ip, median survival T/C. As to the kind of experiment: NCI In Vivo Anticancer Drug Screen. Data for tumor model B16 Melanoma (intraperitoneal) in B6C3F1 mice. To be noted: endpoint: median survival time, higher = longer survival. In a few lines:
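Transplantable tumor in mice; treated vs vehicle control groups; survival or tumor size measured; value = T/C ratio.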

Setting [1] is: dose: 6.25 mg/kg/injection, schedule: Q01DX009 (ip), vehicle: saline with Tween-80.
[2] abbreviates: dose: 25.0 mg/kg/injection, schedule: Q01DX009 (ip), vehicle: saline with Tween-80.
Setting [3] is: dose: 50.0 mg/kg/injection, schedule: Q01DX009 (ip), vehicle: saline with Tween-80.
Setting [4] is: dose: 100.0 mg/kg/injection, schedule: Q01DX009 (ip), vehicle: saline with Tween-80.
The mark [5] stands for this setting: dose: 100.0 mg/kg/injection, schedule: Q01DX009 (ip), vehicle: Klucel (hydroxypropylcellulose) (HPC).
[6] abbreviates: dose: 200.0 mg/kg/injection, schedule: Q01DX009 (ip), vehicle: Klucel (hydroxypropylcellulose) (HPC).
[7] abbreviates: dose: 12.5 mg/kg/injection, schedule: Q01DX009 (ip), vehicle: saline.
[8] abbreviates: dose: 25.0 mg/kg/injection, schedule: Q01DX009 (ip), vehicle: saline.
Where [9] appears, read: dose: 100.0 mg/kg/injection, schedule: Q01DX009 (ip), vehicle: saline.
[10] abbreviates: dose: 12.5 mg/kg/injection, schedule: Q01DX009 (ip), vehicle: saline with Tween-80.
Where [11] appears, read: dose: 50.0 mg/kg/injection, schedule: Q01DX009 (ip), vehicle: saline.
Setting [12] is: dose: 200.0 mg/kg/injection, schedule: Q01DX009 (ip), vehicle: saline.

Values joined by “and” are separate entries in the source; they are usually repeats but may differ in a detail not shown here. Equal entries are not always repeated. Inconclusive results and toxic doses are left out. Where a SMILES comes first, the peptide text is derived from it. The star is where a group is joined. Cbz = O=C(OCc1ccccc1)*

On to `CC(=O)OC1(C)CC(C)C(=O)C(C(O)CC2CC(=O)NC(=O)C2)C1` (centres undefined), for which the T/C (dose: 15.6 micrograms/kg/injection, schedule: Q01DX009 (ip), vehicle: saline) was 111 % of control; the T/C (dose: 31.3 micrograms/kg/injection, schedule: Q01DX009 (ip), vehicle: saline) was 107 % of control; the T/C (dose: 62.5 micrograms/kg/injection, schedule: Q01DX009 (ip), vehicle: saline) is 104 % of control; the T/C (dose: 125.0 micrograms/kg/injection, schedule: Q01DX009 (ip), vehicle: saline) is 108 % of control; the T/C (dose: 250.0 micrograms/kg/injection, schedule: Q01DX009 (ip), vehicle: saline) is 117 % of control.
Turning to `COc1cc(/C=C/[N+](=O)[O-])cc(Br)c1OC`, the T/C (dose: 0.75 mg/kg/injection, schedule: Q01DX009 (ip), vehicle: saline with Tween-80) was 102 % of control; the T/C (dose: 1.5 mg/kg/injection, schedule: Q01DX009 (ip), vehicle: saline with Tween-80) is 112 % of control; the T/C (dose: 3.0 mg/kg/injection, schedule: Q01DX009 (ip), vehicle: saline with Tween-80) is 98 % of control; the T/C (dose: 6.0 mg/kg/injection, schedule: Q01DX009 (ip), vehicle: saline with Tween-80) is 97 % of control; the T/C under setting [1] is 91 % of control; the T/C (dose: 12.0 mg/kg/injection, schedule: Q01DX009 (ip), vehicle: saline with Tween-80) is 93 % of control.
Turning to `O=C(NC(CO)C(=O)O)OCc1ccccc1` (centres undefined), the T/C reads like this: under setting [2], 97 % of control; under setting [3], 98 % of control; under setting [4], 87 % of control and 102 % of control.
On to `CC(C)(C)OC(=O)NC(CSCc1ccccc1)C(=O)ON1C(=O)CCC1=O` (centres undefined), for which the T/C is 94 % of control under setting [5] and 100 % of control under setting [6].
Consider `Cc1ccc2nc(-c3ccc4nc(-c5ccc(N=Nc6ccc(-c7nc8ccc(-c9nc%10ccc(C)c(S(=O)(=O)O)c%10s9)cc8s7)cc6)cc5)sc4c3)sc2c1S(=O)(=O)O`, for which the T/C is 87 % of control under setting [7], 86 % of control under setting [8] and 88 % of control under setting [9].
Regarding `Nc1nc(-c2cccc(S(=O)(=O)O)c2)c([N+](=O)[O-])c(=O)[nH]1`, the T/C by setting is: (dose: 12.88 mg/kg/injection, schedule: Q01DX009 (ip), vehicle: saline) 99 % of control; (dose: 25.75 mg/kg/injection, schedule: Q01DX009 (ip), vehicle: saline) 96 % of control; (dose: 51.5 mg/kg/injection, schedule: Q01DX009 (ip), vehicle: saline) 109 % of control.
Turning to `CC1(C)N=C(N)N=C(N)N1c1ccc(F)c(C(F)(F)F)c1`, the T/C by setting is: (dose: 0.37 mg/kg/injection, schedule: Q01DX009 (ip), vehicle: saline) 93 % of control; (dose: 0.75 mg/kg/injection, schedule: Q01DX009 (ip), vehicle: saline) 96 % of control; (dose: 1.5 mg/kg/injection, schedule: Q01DX009 (ip), vehicle: saline) 94 % of control; (dose: 3.0 mg/kg/injection, schedule: Q01DX009 (ip), vehicle: saline) 99 % of control; (dose: 6.0 mg/kg/injection, schedule: Q01DX009 (ip), vehicle: saline) 106 % of control; (dose: 12.0 mg/kg/injection, schedule: Q01DX009 (ip), vehicle: saline) 113 % of control. Besides, the T/C under setting [7] was 120 % of control.
With `COc1ccc(OC)c(/C=C/c2ccnc3ccccc23)c1`, the T/C was 95 % of control (dose: 50.0 mg/kg/injection, schedule: Q01DX009 (ip), vehicle: saline sonified); 107 % of control (dose: 100.0 mg/kg/injection, schedule: Q01DX009 (ip), vehicle: saline sonified); 117 % of control (dose: 200.0 mg/kg/injection, schedule: Q01DX009 (ip), vehicle: saline sonified).
Turning to `O=NN(CCCl)C(=O)Oc1ccc(OC(=O)N(CCCl)N=O)cc1`, the T/C (dose: 3.12 mg/kg/injection, schedule: Q01DX009 (ip), vehicle: Klucel (hydroxypropylcellulose) (HPC)) was 112 % of control; the T/C (dose: 6.25 mg/kg/injection, schedule: Q01DX009 (ip), vehicle: Klucel (hydroxypropylcellulose) (HPC)) is 107 % of control; the T/C (dose: 12.5 mg/kg/injection, schedule: Q01DX009 (ip), vehicle: Klucel (hydroxypropylcellulose) (HPC)) is 107 % of control.
In the case of `O=C1c2ccc(Br)cc2-c2cc(Br)ccc21`, the T/C under setting [1] is 98 % of control, the T/C under setting [10] was 98 % of control and the T/C under setting [2] is 93 % of control.
`N#Cc1nc(C#N)c(Sc2ccccc2)c(Sc2ccccc2)c1Sc1ccccc1`: the T/C reads like this: (dose: 3.12 mg/kg/injection, schedule: Q01DX009 (ip), vehicle: saline with Tween-80) 104 % of control; (dose: 3.13 mg/kg/injection, schedule: Q01DX009 (ip), vehicle: saline with Tween-80) 101 % of control; under setting [1], 98 % of control and 102 % of control; under setting [10], 93 % of control and 94 % of control; under setting [2], 101 % of control; under setting [3], 97 % of control and 98 % of control. The T/C under setting [4] was 101 % of control and 104 % of control.
`C1CCC(NC2CCCCC2)CC1`: the T/C is 86 % of control under setting [8]; 101 % of control under setting [11]; 106 % of control under setting [9]; 86 % of control under setting [12]; 104 % of control (dose: 400.0 mg/kg/injection, schedule: Q01DX009 (ip), vehicle: saline).
As to `O=C(N/N=C/c1cccc(O)c1O)N/N=C/c1cccc(O)c1O`, the T/C under setting [10] was 118 % of control; the T/C under setting [2] is 112 % of control; the T/C under setting [3] was 116 % of control; the T/C under setting [4] is 106 % of control; the T/C (dose: 200.0 mg/kg/injection, schedule: Q01DX009 (ip), vehicle: saline with Tween-80) is 106 % of control.
Consider `CC1=C[S+](c2ccccc2)c2cccc3cc4ccccc4c1c23` (centres undefined), for which the T/C is 106 % of control (dose: 0.06 mg/kg/injection, schedule: Q01DX009 (ip), vehicle: saline with Tween-80); 103 % of control (dose: 0.12 mg/kg/injection, schedule: Q01DX009 (ip), vehicle: saline with Tween-80); 115 % of control (dose: 0.25 mg/kg/injection, schedule: Q01DX009 (ip), vehicle: saline with Tween-80); 100 % of control (dose: 0.5 mg/kg/injection, schedule: Q01DX009 (ip), vehicle: saline with Tween-80); 111 % of control (dose: 1.0 mg/kg/injection, schedule: Q01DX009 (ip), vehicle: saline with Tween-80); 112 % of control and 106 % of control (dose: 2.0 mg/kg/injection, schedule: Q01DX009 (ip), vehicle: saline with Tween-80).
On to `NCC(=O)NC(CC(N)=O)C(=O)O` (centres undefined) (HELM PEPTIDE1{G.[NC(=O)CC(N[*:1])C(=O)O]}$$$$V2.0), for which the T/C by setting is: under setting [11], 98 % of control; under setting [9], 91 % of control; under setting [12], 93 % of control.
Regarding `CCC(C)C(NC(=O)OCc1ccccc1)C(=O)NC(C(=O)O)C(C)C` (stereo not drawn) (Cbz-Ile-Val-OH; configuration not given here), the T/C is, setting by setting: under setting [5], 91 % of control; under setting [6], 94 % of control; (dose: 400.0 mg/kg/injection, schedule: Q01DX009 (ip), vehicle: Klucel (hydroxypropylcellulose) (HPC)) 94 % of control.
Take `COc1cccc2c1C(=O)c1c(O)c3c(c(O)c1C2=O)C[C@@](O)(C(=O)CO)C[C@@H]3OC1CC(OC(C)=O)C(OC(C)=O)C(C)O1` (some centres undefined): the T/C (dose: 6.25 mg/kg/injection, schedule: Q01DX009 (ip), vehicle: distilled water + Tween-80) was 178 % of control; the T/C (dose: 12.5 mg/kg/injection, schedule: Q01DX001 (ip), vehicle: distilled water + Tween-80) was 150 % of control; the T/C (dose: 25.0 mg/kg/injection, schedule: Q01DX001 (ip), vehicle: distilled water + Tween-80) was 159 % of control and 195 % of control; the T/C (dose: 50.0 mg/kg/injection, schedule: Q01DX001 (ip), vehicle: distilled water + Tween-80) is 176 % of control and 202 % of control.
On to `CCC(C)C(NC(=O)CN)C(=O)O` (centres undefined) (HELM PEPTIDE1{G.[CCC(C)C(N[*:1])C(=O)O]}$$$$V2.0), for which the T/C reads like this: under setting [11], 92 % of control; under setting [9], 92 % of control; under setting [12], 92 % of control.
